Assay results from US7785581B2, “Composition and method for reducing feces toxins and treating digestive disorders” (Qingdao East Sea Pharmaceuticals Ltd., priority 2006, dated 2010).

Experiments:
Format in all cases: in vivo, human
[1] = system: patients with diarrhea; test: Treatment of diarrhea associated with cold or raw food, or with common cold (Example 9); conditions: 14 to 21 days
[2] = system: IBS patients; test: Treatment of IBS with live Bifidobacterium tablets (Example 8)
[3] = system: patients with diarrhea; test: Treatment of diarrhea associated with alcohol intake (Example 10); conditions: 14 to 21 days
[4] = diarrhea after cold/raw food or common cold
[5] = 57 IBS patients, 14 to 21 days, cured plus effective
[6] = diarrhea after drinking alcohol

Bifidobacterium
effectiveness in treating diarrhea associated with eating cold or raw foods, or with common cold [1]: highly effective
Cured (cases) [1, 4]: 23
Effective (cases) [1, 4]: 14
Improved (cases) [1, 4]: 5
Ineffective (cases) [1, 4]: 0
Efficacy ([1]; diarrhea after cold/raw food or common cold, cured plus effective): 88.10%
Cured % ([2]; 57 IBS patients, 14 to 21 days): 61%
Cured Case No. ([2]; 57 IBS patients, 14 to 21 days): 35
Effective % ([2]; 57 IBS patients, 14 to 21 days): 28%
Effective Case No. ([2]; 57 IBS patients, 14 to 21 days): 16
Improved % ([2]; 57 IBS patients, 14 to 21 days): 11%
Improved Case No. ([2]; 57 IBS patients, 14 to 21 days): 6
Ineffective % ([2]; 57 IBS patients, 14 to 21 days): 0%
Ineffective Case No. ([2]; 57 IBS patients, 14 to 21 days): 0
Effective Cases % (overall effective rate) [2, 5]: 89%
Effective Cases Case No. [2, 5]: 51
other IBS symptoms, such as abdominal pain and discomfort ([2]; IBS patients): alleviated
symptoms of diarrhea or constipation ([2]; most of the IBS patients): ameliorated
effectiveness in treating diarrhea associated with alcohol intake [3]: highly effective
Cured (cases) [3, 6]: 21
Effective (cases) [3, 6]: 13
Improved (cases) [3, 6]: 4
Ineffective (cases) [3, 6]: 0
Efficacy ([3]; diarrhea after drinking alcohol, cured plus effective): 89.5%
